Experimental data as given in article PMC5218480 (PLoS ONE, 2017).

Tested on: MV-4-11 cells
Test: Gene expression microarray analysis (Affymetrix PrimeView) and GSEA
Assay type: cell-based, human
Parameters: RFU PODN (11730768_x_at) / Fold change /veh PODN (11730768_x_at) / RFU LINC00158 (11744669_a_at) / Fold change /veh LINC00158 (11744669_a_at) / RFU DUSP10 (11751237_a_at) / Fold change /veh DUSP10 (11751237_a_at) / RFU ID3 (11757404_x_at) / Fold change /veh ID3 (11757404_x_at) / RFU PLEKHG5 (11737974_s_at) / Fold change /veh PLEKHG5 (11737974_s_at) / RFU LRRC4B (11730491_at) / Fold change /veh LRRC4B (11730491_at) / RFU GIMAP4 (11747438_a_at) / Fold change /veh GIMAP4 (11747438_a_at) / RFU KRT8 (11758183_x_at) / Fold change /veh KRT8 (11758183_x_at) / RFU CNN1 (11734310_a_at) / Fold change /veh CNN1 (11734310_a_at) / RFU VPS37D (11726825_at) / Fold change /veh VPS37D (11726825_at) / RFU C10orf10 (11716522_x_at) / Fold change /veh C10orf10 (11716522_x_at) / RFU KIR2DL2 /// KIR2DL4 /// KIR2DL5A /// KIR2DL5B /// KIR2DS1 /// KIR2DS2 /// KIR2DS3 /// KIR2DS4 /// KIR3DL3 /// KIR3DL3 /// KIR3DS1 (11738374_at) / Fold change /veh KIR2DL2 /// KIR2DL4 /// KIR2DL5A /// KIR2DL5B /// KIR2DS1 /// KIR2DS2 /// KIR2DS3 /// KIR2DS4 /// KIR3DL3 /// KIR3DL3 /// KIR3DS1 (11738374_at) / RFU C1QL1 (11718748_at) / Fold change /veh C1QL1 (11718748_at) / RFU TMPRSS4 (11747572_a_at) / Fold change /veh TMPRSS4 (11747572_a_at) / RFU HAMP (11756126_x_at) / Fold change /veh HAMP (11756126_x_at) / RFU RNFT2 (11725882_a_at) / Fold change /veh RNFT2 (11725882_a_at) / RFU NR4A2 (11747474_a_at) / Fold change /veh NR4A2 (11747474_a_at) / RFU ABCC12 (11746883_a_at) / Fold change /veh ABCC12 (11746883_a_at) / RFU TMEM136 (11760407_x_at) / Fold change /veh TMEM136 (11760407_x_at) / RFU CLDN22 /// WWC2 (11732394_at) / Fold change /veh CLDN22 /// WWC2 (11732394_at) / RFU HLA-DPB1 (11760878_x_at) / Fold change /veh HLA-DPB1 (11760878_x_at) / RFU SPINT1 (11716480_a_at) / Fold change /veh SPINT1 (11716480_a_at) / RFU GAP43 (11754022_s_at) / Fold change /veh GAP43 (11754022_s_at) / RFU A4GNT (11735810_at) / Fold change /veh A4GNT (11735810_at) / RFU PRB3 (11715151_x_at) / Fold change /veh PRB3 (11715151_x_at) / RFU TUBB4B (11761932_at) / Fold change /veh TUBB4B (11761932_at) / RFU CAPN14 (11732068_a_at) / Fold change /veh CAPN14 (11732068_a_at) / RFU TMCC2 (11721928_a_at) / Fold change /veh TMCC2 (11721928_a_at) / RFU IRGQ (11745062_a_at) / Fold change /veh IRGQ (11745062_a_at) / RFU FAM174B (11720279_a_at) / Fold change /veh FAM174B (11720279_a_at) / RFU TMPRSS4 (11748680_a_at) / Fold change /veh TMPRSS4 (11748680_a_at) / RFU FAM212B (11763350_a_at) / Fold change /veh FAM212B (11763350_a_at) / RFU PLEKHG5 (11743358_a_at) / Fold change /veh PLEKHG5 (11743358_a_at) / RFU ZSCAN30 (11745921_a_at) / Fold change /veh ZSCAN30 (11745921_a_at) / RFU CMKLR1 (11741424_a_at) / Fold change /veh CMKLR1 (11741424_a_at) / RFU LOC101060620 /// MAPK8IP1 (11723275_at) / Fold change /veh LOC101060620 /// MAPK8IP1 (11723275_at) / RFU SPTSSB (11747773_x_at) / Fold change /veh SPTSSB (11747773_x_at) / RFU PRSS12 (11739890_at) / Fold change /veh PRSS12 (11739890_at) / RFU BIN1 (11741810_x_at) / Fold change /veh BIN1 (11741810_x_at) / RFU WNT11 (11732464_a_at) / Fold change /veh WNT11 (11732464_a_at) / RFU C10orf10 (11716521_a_at) / Fold change /veh C10orf10 (11716521_a_at) / RFU C5orf56 (11738089_at) / Fold change /veh C5orf56 (11738089_at) / RFU CYB561 (11721691_x_at) / Fold change /veh CYB561 (11721691_x_at) / RFU ANKRD19P (11752326_a_at) / Fold change /veh ANKRD19P (11752326_a_at) / RFU OR2T12 /// OR2T33 /// OR2T8 (11738714_s_at) / Fold change /veh OR2T12 /// OR2T33 /// OR2T8 (11738714_s_at) / RFU VCAN (11748164_a_at) / Fold change /veh VCAN (11748164_a_at) / RFU JSRP1 (11732532_at) / Fold change /veh JSRP1 (11732532_at) / RFU KRTAP10-11 (11738290_x_at) / Fold change /veh KRTAP10-11 (11738290_x_at) / RFU MYO3A (11730013_a_at) / Fold change /veh MYO3A (11730013_a_at) / RFU EBF3 (11725865_a_at) / Fold change /veh EBF3 (11725865_a_at) / RFU CAMK2N1 (11719241_x_at) / Fold change /veh CAMK2N1 (11719241_x_at) / RFU C5orf56 (11738088_a_at) / Fold change /veh C5orf56 (11738088_a_at) / RFU OLFML3 (11715873_a_at) / Fold change /veh OLFML3 (11715873_a_at) / RFU LOC100653217 /// NTM (11731650_a_at) / Fold change /veh LOC100653217 /// NTM (11731650_a_at) / RFU MAPK11 (11762145_a_at) / Fold change /veh MAPK11 (11762145_a_at) / RFU FIZ1 (11724087_x_at) / Fold change /veh FIZ1 (11724087_x_at) / RFU OASL (11726364_x_at) / Fold change /veh OASL (11726364_x_at) / RFU SOX15 (11748057_x_at) / Fold change /veh SOX15 (11748057_x_at) / RFU CD79A (11719716_a_at) / Fold change /veh CD79A (11719716_a_at) / RFU HIST1H1D (11736915_at) / Fold change /veh HIST1H1D (11736915_at) / RFU CASKIN2 (11723855_a_at) / Fold change /veh CASKIN2 (11723855_a_at) / RFU LOC730098 (11760151_x_at) / Fold change /veh LOC730098 (11760151_x_at) / RFU OR4N2 (11742367_at) / Fold change /veh OR4N2 (11742367_at) / RFU PRRT2 (11749266_a_at) / Fold change /veh PRRT2 (11749266_a_at) / RFU SNX32 (11753110_a_at) / Fold change /veh SNX32 (11753110_a_at) / RFU CDHR5 (11726645_a_at) / Fold change /veh CDHR5 (11726645_a_at) / RFU RCAN1 (11760418_a_at) / Fold change /veh RCAN1 (11760418_a_at) / RFU FAM167A (11723789_a_at) / Fold change /veh FAM167A (11723789_a_at) / RFU FAM26E (11764081_at) / Fold change /veh FAM26E (11764081_at) / RFU ISYNA1 (11749810_s_at) / Fold change /veh ISYNA1 (11749810_s_at) / RFU ACY1 (11761880_at) / Fold change /veh ACY1 (11761880_at) / RFU 11764098_at / Fold change /veh 11764098_at / RFU SAMD14 (11745864_x_at) / Fold change /veh SAMD14 (11745864_x_at) / RFU NPB (11741838_a_at) / Fold change /veh NPB (11741838_a_at) / RFU TMPRSS6 (11731388_a_at) / Fold change /veh TMPRSS6 (11731388_a_at) / RFU KRTAP10-2 (11738614_at) / Fold change /veh KRTAP10-2 (11738614_at) / RFU ARHGAP8 /// PRR5-ARHGAP8 (11727945_x_at) / Fold change /veh ARHGAP8 /// PRR5-ARHGAP8 (11727945_x_at) / RFU KRTAP5-7 /// NADSYN1 (11734609_at) / Fold change /veh KRTAP5-7 /// NADSYN1 (11734609_at) / RFU RASL12 (11751679_a_at) / Fold change /veh RASL12 (11751679_a_at) / RFU CDKN2B (11736163_a_at) / Fold change /veh CDKN2B (11736163_a_at) / RFU PRF1 (11729649_at) / Fold change /veh PRF1 (11729649_at) / RFU, ZNF638 /// ZNF638-IT1 / Fold change vs veh, ZNF638 /// ZNF638-IT1 / RFU, PANK3 / Fold change vs veh, PANK3 / RFU, SH3YL1 / Fold change vs veh, SH3YL1 / RFU, ZEB2 / Fold change vs veh, ZEB2 / RFU, NRIP1 / Fold change vs veh, NRIP1 / RFU, PTTG1IP / Fold change vs veh, PTTG1IP / RFU, CAPN2 / Fold change vs veh, CAPN2 / RFU, MED14 / Fold change vs veh, MED14 / RFU, SNORA58 / Fold change vs veh, SNORA58 / RFU, C1orf63 / Fold change vs veh, C1orf63 / RFU, LRRFIP1 / Fold change vs veh, LRRFIP1 / RFU, NDUFAF7 / Fold change vs veh, NDUFAF7 / RFU, SLC12A2 / Fold change vs veh, SLC12A2 / RFU, IBTK / Fold change vs veh, IBTK / RFU, ESF1 / Fold change vs veh, ESF1 / Fold change vs veh, TMEM50B / RFU, TAOK1 / Fold change vs veh, TAOK1 / RFU, ACBD3 / Fold change vs veh, ACBD3 / RFU, TMA16 / Fold change vs veh, TMA16 / RFU, RWDD3 / Fold change vs veh, RWDD3 / RFU, BCAT1 / Fold change vs veh, BCAT1 / RFU, EDEM3 / Fold change vs veh, EDEM3 / RFU, TMEM33 / Fold change vs veh, TMEM33 / RFU, WDR75 / Fold change vs veh, WDR75 / RFU, AHCTF1 / Fold change vs veh, AHCTF1 / RFU, TFRC / Fold change vs veh, TFRC / RFU, ZDHHC17 / Fold change vs veh, ZDHHC17 / RFU, NOM1 / Fold change vs veh, NOM1 / RFU, ARL8B / Fold change vs veh, ARL8B / RFU, ZBTB11 / Fold change vs veh, ZBTB11 / RFU, TAMM41 / Fold change vs veh, TAMM41 / RFU, KIAA1704 /// LOC100996395 / Fold change vs veh, KIAA1704 /// LOC100996395 / RFU, ING1 / Fold change vs veh, ING1 / RFU, TRMT61B / Fold change vs veh, TRMT61B / RFU, FUBP3 / Fold change vs veh, FUBP3 / RFU, TP53 / Fold change vs veh, TP53 / RFU, TNKS2 / Fold change vs veh, TNKS2 / RFU, ZFP14 / Fold change vs veh, ZFP14 / RFU, ACTR2 / Fold change vs veh, ACTR2 / RFU, PPP3R1 / Fold change vs veh, PPP3R1 / RFU, PIK3R1 / Fold change vs veh, PIK3R1 / RFU, HNRNPA1 / Fold change vs veh, HNRNPA1 / RFU, RNF170 / Fold change vs veh, RNF170 / RFU, ZNF28 / Fold change vs veh, ZNF28 / RFU, RNGTT / Fold change vs veh, RNGTT / RFU, OGT / Fold change vs veh, OGT / RFU, BRD1 / Fold change vs veh, BRD1 / RFU, MARS / Fold change vs veh, MARS / RFU, ZNF655 / Fold change vs veh, ZNF655 / RFU, FAHD1 / Fold change vs veh, FAHD1 / RFU, BDP1 / Fold change vs veh, BDP1 / RFU, LRRCC1 / Fold change vs veh, LRRCC1 / RFU, ARID1A / Fold change vs veh, ARID1A / RFU, ZNF146 / Fold change vs veh, ZNF146 / RFU, ZNF330 / Fold change vs veh, ZNF330 / RFU, GPN3 / Fold change vs veh, GPN3 / RFU, C9orf123 / Fold change vs veh, C9orf123 / RFU, N4BP2L2 / Fold change vs veh, N4BP2L2 / RFU, ARFIP1 / Fold change vs veh, ARFIP1 / RFU, FAM179B / Fold change vs veh, FAM179B / RFU, BCL10 / Fold change vs veh, BCL10 / RFU, UHRF1BP1L / Fold change vs veh, UHRF1BP1L / RFU, BET1 / Fold change vs veh, BET1 / RFU, CNOT2 / Fold change vs veh, CNOT2 / RFU, ZNF268 / Fold change vs veh, ZNF268 / Fold change vs veh, ZNF507 / RFU, DGCR2 / Fold change vs veh, DGCR2 / RFU, WDSUB1 / Fold change vs veh, WDSUB1 / Fold change vs veh, HSP90B1 /// MIR3652 / RFU, ADSS / Fold change vs veh, ADSS / RFU, GK / Fold change vs veh, GK / RFU, ZNF148 / Fold change vs veh, ZNF148 / RFU, TAF9 / Fold change vs veh, TAF9 / RFU, SLC1A5 / Fold change vs veh, SLC1A5 / RFU, SLMO2 / Fold change vs veh, SLMO2 / RFU, ABCC4 / Fold change vs veh, ABCC4 / RFU, LOC101060439 /// RAP1B / Fold change vs veh, LOC101060439 /// RAP1B / RFU, RFX7 / Fold change vs veh, RFX7 / RFU, GTPBP10 / Fold change vs veh, GTPBP10 / RFU, CNEP1R1 / Fold change vs veh, CNEP1R1 / RFU, BIVM-ERCC5 /// ERCC5 / Fold change vs veh, BIVM-ERCC5 /// ERCC5 / RFU, ILF3 / Fold change vs veh, ILF3 / RFU 11762660_at / Fold change /veh 11762660_at / RFU VCAN (11757783_s_at) / Fold change /veh VCAN (11757783_s_at) / RFU DDX43 (11728927_at) / Fold change /veh DDX43 (11728927_at) / RFU KRT8 (11758188_x_at) / Fold change /veh KRT8 (11758188_x_at) / RFU NKD1 (11759106_at) / Fold change /veh NKD1 (11759106_at) / RFU SRD5A1 (11742802_a_at) / Fold change /veh SRD5A1 (11742802_a_at) / RFU TPSAB1 /// TPSB2 (11721975_s_at) / Fold change /veh TPSAB1 /// TPSB2 (11721975_s_at) / RFU GSTM3 (11746129_a_at) / Fold change /veh GSTM3 (11746129_a_at) / RFU IL23R (11737362_x_at) / Fold change /veh IL23R (11737362_x_at) / RFU TMEM51 (11727254_a_at) / Fold change /veh TMEM51 (11727254_a_at) / RFU PIWIL2 (11732686_x_at) / Fold change /veh PIWIL2 (11732686_x_at) / RFU ORM1 (11744905_x_at) / Fold change /veh ORM1 (11744905_x_at) / RFU CCDC152 (11743942_at) / Fold change /veh CCDC152 (11743942_at) / RFU ECM1 (11717891_a_at) / Fold change /veh ECM1 (11717891_a_at) / RFU IL23R (11748794_a_at) / Fold change /veh IL23R (11748794_a_at) / RFU TNFAIP8L3 (11732012_x_at) / Fold change /veh TNFAIP8L3 (11732012_x_at) / RFU MBOAT4 (11741988_at) / Fold change /veh MBOAT4 (11741988_at) / RFU 11764193_at / Fold change /veh 11764193_at / RFU TMEM53 (11763286_at) / Fold change /veh TMEM53 (11763286_at) / RFU MAGEB2 (11727129_at) / Fold change /veh MAGEB2 (11727129_at) / RFU TMEM200A (11744735_a_at) / Fold change /veh TMEM200A (11744735_a_at) / RFU CCDC152 (11751479_a_at) / Fold change /veh CCDC152 (11751479_a_at) / RFU FAM211A (11726209_a_at) / Fold change /veh FAM211A (11726209_a_at) / RFU RGS16 (11746705_a_at) / Fold change /veh RGS16 (11746705_a_at) / RFU VCAN (11755009_s_at) / Fold change /veh VCAN (11755009_s_at) / RFU RHOB (11743442_s_at) / Fold change /veh RHOB (11743442_s_at) / RFU RGS16 (11720943_a_at) / Fold change /veh RGS16 (11720943_a_at) / RFU RGS16 (11720944_at) / Fold change /veh RGS16 (11720944_at) / RFU, VPS4B / Fold change vs veh, VPS4B / RFU, CREB1 / Fold change vs veh, CREB1 / RFU, DNAJC13 / Fold change vs veh, DNAJC13 / RFU, GNAQ / Fold change vs veh, GNAQ / RFU, CDK5R1 / Fold change vs veh, CDK5R1 / RFU, ZRANB3 / Fold change vs veh, ZRANB3 / RFU, CUL4A / Fold change vs veh, CUL4A / RFU, CCNY / Fold change vs veh, CCNY / RFU, UFL1 / Fold change vs veh, UFL1 / RFU, COG3 / Fold change vs veh, COG3 / RFU, DIAPH2 / Fold change vs veh, DIAPH2 / RFU, SKA2 / Fold change vs veh, SKA2 / RFU, AFF3 / Fold change vs veh, AFF3 / RFU, LMF1 / Fold change vs veh, LMF1 / RFU, IPO11 / Fold change vs veh, IPO11 / RFU, DFFB / Fold change vs veh, DFFB / RFU, FOXP1 / Fold change vs veh, FOXP1 / RFU, CARD8 / Fold change vs veh, CARD8 / RFU, STRN3 / Fold change vs veh, STRN3 / RFU, ADK / Fold change vs veh, ADK / RFU, RASSF2 / Fold change vs veh, RASSF2 / RFU, WIPF1 / Fold change vs veh, WIPF1 / RFU, LARP1B / Fold change vs veh, LARP1B / RFU, RASA1 / Fold change vs veh, RASA1 / RFU, RB1 / Fold change vs veh, RB1 / RFU, PPFIA1 / Fold change vs veh, PPFIA1 / RFU, MAT2A / Fold change vs veh, MAT2A / RFU, CCT5 / Fold change vs veh, CCT5 / RFU, WDR92 / Fold change vs veh, WDR92 / RFU, CUX1 / Fold change vs veh, CUX1 / RFU, TTC7A / Fold change vs veh, TTC7A / RFU, TMEM135 / Fold change vs veh, TMEM135 / RFU, DEPTOR / Fold change vs veh, DEPTOR / RFU, CPM / Fold change vs veh, CPM / RFU, DNAJB6 / Fold change vs veh, DNAJB6 / RFU, CACNA2D3 / Fold change vs veh, CACNA2D3 / RFU, DTX4 / Fold change vs veh, DTX4 / RFU, TFCP2 / Fold change vs veh, TFCP2 / RFU, GMCL1 /// GMCL1P1 / Fold change vs veh, GMCL1 /// GMCL1P1 / RFU, AEBP2 / Fold change vs veh, AEBP2 / RFU, SNHG1 /// SNORD22 /// SNORD25 /// SNORD26 /// SNORD27 /// SNORD28 /// SNORD29 /// SNORD31 / Fold change vs veh, SNHG1 /// SNORD22 /// SNORD25 /// SNORD26 /// SNORD27 /// SNORD28 /// SNORD29 /// SNORD31 / Fold change (Aza/veh), C12orf56 (ProbeSet 11735607_a_at) / Fold change (ACY-1035/veh), C12orf56 (ProbeSet 11735607_a_at) / Fold change (Aza/veh), FGFR1OP (ProbeSet 11751329_s_at) / Fold change (ACY-1035/veh), FGFR1OP (ProbeSet 11751329_s_at) / Fold change (Aza/veh), VPS36 (ProbeSet 11739960_a_at) / Fold change (ACY-1035/veh), VPS36 (ProbeSet 11739960_a_at) / RFU SYPL1 (11715823_x_at) / Fold change /veh SYPL1 (11715823_x_at) / RFU IGFBP7 (11715501_s_at) / Fold change /veh IGFBP7 (11715501_s_at) / RFU REEP3 (11722064_at) / Fold change /veh REEP3 (11722064_at) / RFU IGLL1 (11728026_x_at) / Fold change /veh IGLL1 (11728026_x_at): dose or concentration left out as unconfirmed
Conditions: MV-4-11 cells, 48 hours

Nc1ccc(-c2cccs2)cc1NC(=O)c1ccc2c(c1)cc(C1CC1)n2CCN1CCOCC1 [ACY-1035]
RFU SPINT1 (11716480_a_at): 24.20 RFU
